This note sets out measurements from patent publication US11959102B2, “Augmentation of fibroblast regenerative activity” (Figene, LLC, priority 2017, dated 2024).

The test system of this experiment is Foreskin fibroblasts. Nature of the experiment: VEGF production by cultured fibroblasts, ELISA of culture media. Type of experiment: cell-based. The conditions noted are these: media after 24 hours of culture. Here is the method: (§1) Foreskin fibroblasts purchased from ATCC where cultured in T-75 flasks using Fibroblast Basal Media from ATCC. When cells reached 75% confluence, exposure to: a) Normoxia; b) hypoxia (2% oxygen for 4 hours); c) carbon monoxide (250 ppm) for 4 hours; or d) hypoxia followed by carbon monoxide. Cells were re-plated on 96 well plates, flat bottomed, by trypsinization. Concentration of re-plated cells was 0, 10,000, 20,000 and 40,000 cells per well. Culture media was extracted after 24 hours of culture and analyzed for VEGF production using ELISA (R&D Systems). […] No VEGF production was observed from Normoxic Control fibroblasts.
as §1, with “simultaneously as” for “followed by”, “monoxide” for “monoxide.”, “replated” for “re-plated”

Consider `[C-]#[O+]` [carbon monoxide], for which the VEGF production result reads like this: (hypoxia (2% oxygen for 4 hours) followed by carbon monoxide (250 ppm, 4 hours), FIG. 1) “synergistic increase”; (hypoxia (2% oxygen for 4 hours) simultaneously as carbon monoxide (250 ppm), FIG. 2) “synergistic increase”.
